# Data published in PubChem BioAssay (NCI).
#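 Briefly, cells in 96-well plates were exposed to five compound concentrations for 48 h, and endpoints were estimated by linear interpolation. GI50 is the concentration that inhibits growth by half. TGI marks complete inhibition of growth.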
# Key:
# Assay in all cases: NCI anticancer screen, dose series, 48 h
# DU-145 prostate = system: DU-145 prostate
# BT-549 breast = system: BT-549 breast
# UO-31 renal = system: UO-31 renal
# CCRF-CEM leukemia = system: CCRF-CEM leukemia
# HCT-116 colon = system: HCT-116 colon
# SN12C renal = system: SN12C renal
# HCC-2998 colon = system: HCC-2998 colon
# SNB-19 CNS = system: SNB-19 CNS
# SK-OV-3 ovarian = system: SK-OV-3 ovarian
# MALME-3M melanoma = system: MALME-3M melanoma
Compound,GI50 (DU-145 prostate) [µM],TGI (DU-145 prostate) [µM],GI50 (BT-549 breast) [µM],TGI (BT-549 breast) [µM],GI50 (UO-31 renal) [µM],TGI (UO-31 renal) [µM],GI50 (CCRF-CEM leukemia) [µM],TGI (CCRF-CEM leukemia) [µM],GI50 (HCT-116 colon) [µM],TGI (HCT-116 colon) [µM],GI50 (SN12C renal) [µM],TGI (SN12C renal) [µM],GI50 (HCC-2998 colon) [µM],TGI (HCC-2998 colon) [µM],GI50 (SNB-19 CNS) [µM],TGI (SNB-19 CNS) [µM],GI50 (SK-OV-3 ovarian) [µM],TGI (SK-OV-3 ovarian) [µM],GI50 (MALME-3M melanoma) [µM],TGI (MALME-3M melanoma) [µM]
CSc1nnc(-c2cc3c([nH]c4ccccc43)c(-c3cccc(O)c3)n2)n1-c1ccc(C)cc1,4.57,77.6,2.37,9.27,1.93,29.1,9.4,> 100,4.35,> 100,5.83,81.6,12.3,> 100,3.71,28.6,3.19,14,1.88,5.4
O=C(NNc1ccccc1)c1ccc(Cl)c(Cl)c1,,> 100,,> 66.8,,> 100,,> 100,,> 100,,> 100,,> 40.9,,> 100,,> 80.1,,> 92.5
COc1ccc(/C=C2\COc3ccc(O)c(O)c3C2=O)cc1OC,2.22,11.4,1.32,3.25,0.789,2.19,0.377,12.1,1.47,3.61,1.39,5.16,1.76,3.31,2.06,7.43,3.83,> 100,1.33,3.2
Cc1nn(Cc2ccccc2)cc1C(=O)Nc1sc2c(c1C(N)=O)CCC(=O)C2,3.73,> 100,2.56,7.82,1.39,2.88,0.789,17.1,1.28,4.33,2.61,7.74,2.56,7.41,3.33,> 100,2.7,9.22,1.89,3.79
Cc1ccc(NC(=S)C#N)c(C)c1,,> 100,,> 100,,> 100,,> 100,,> 100,,> 100,,> 100,,> 100,,> 100,,> 94.9
c1cc(C2CCCCC2)ccc1-c1cnc2nonc2n1,1.35,3.02,1.29,3.25,1.18,2.44,0.408,> 93.8,0.468,1.93,1.1,3.21,1.47,2.94,1.46,3.55,2.21,5.98,1.18,2.66
C[C@@]1(C(=O)O)CCC[C@]2(C)C1CC[C@]13C[C@@](O)(CO)[C@](O)(CC[C@]12O)C3 (stereo not given in full),> 100,> 100,> 100,> 100,> 100,> 100,> 100,> 100,> 100,> 100,> 100,> 100,> 100,> 100,> 100,> 100,> 100,> 100,> 100,> 100
CCN(CC)S(=O)(=O)c1cccc(-c2ccc3c(NC(=O)C4CC4)n[nH]c3c2)c1,2.26,> 6.25,1.53,> 6.25,3.97,> 6.25,1.84,> 6.25,1.92,> 6.25,3.77,> 6.25,> 6.25,> 6.25,3.13,> 6.25,3.48,> 6.25,1.46,> 6.25
Cn1cc(C2=C(c3cc[nH]c3)C(=O)NC2=O)c2ccccc21,> 25,> 25,> 17.9,> 25,> 18.5,> 25,> 25,> 25,> 25,> 25,> 25,> 25,> 25,> 25,> 25,> 25,> 23.3,> 25,> 25,> 25
